What was measured:
[1] = tested on: B. divergens; experiment: B. divergens growth in bovine erythrocyte cultures (flow cytometry parasitemia); assay type: cell-based, Babesia divergens; settings: for EC50: bovine erythrocyte cultures, 48 h, dose-response
Method: Blood stage cultures of B. divergens (strain 2210A G2) were maintained in erythrocytes from defibrinated bovine blood (BioTrading Benelux B.V.). Parasites were multiplied in in vitro erythrocyte cultures containing RPMI 1640 medium (Lonza, cat. no. BE12-115F) supplemented with 50 μg/mL gentamicin (Lonza), 0.25 μg/mL amphotericin B (Sigma-Aldrich), and 20% (v/v) heat-inactivated fetal calf serum (Lonza, inactivation at 56 °C for 30 min before use). Cells were cultured at 37 °C in a 5% CO2 environment. B. microti (Franca) (ATTC PRA-99) was maintained by continuous intraperitoneal passages in BALB/c female mice (Charles River Laboratories). All laboratory animals were treated in accordance with the Animal Protection Law of the Czech Republic No. 246/1992 Sb., ethics approval no. 25/2018. The study was approved by the Institute of Parasitology, Biology Centre of the Czech Academy of Sciences and the Central Committee for the Animal Welfare, Czech Republic (protocol no. 1/2015).
To evaluate the effect of inhibitors on B. divergens replication, cultures (5% hematocrit) containing 2% parasitemia were cultivated in media. Single concentration screens were first performed using 600 nM of compound and then dose–response assays (5400 to 2.34 nM) were subsequently performed for compounds of interest. Assays were performed twice in triplicate wells in a 96-well tissue culture plate format (TPP, Switzerland) and media containing inhibitors were replaced at 12 h intervals for a total of 48 h. DMSO diluted in medium (0.1%) served as a vehicle control. The parasitemia of intraerythrocytic B. divergens was determined using flow cytometry following the staining of nucleic acids as described previously.[31] Briefly, infected red blood cells were fixed in a solution of 4% paraformaldehyde and 0.025% glutaraldehyde in PBS for 30 min at room temperature (RT). […] Parasitemia was analyzed using a FACS CantoII flow cytometer and Diva software provided by BD Biosciences. The EC50 of compounds in the dose–response inhibition was determined in GraphPad Prism 10 using nonlinear regression.

[2] = tested on: endogenous polyubiquitinated proteins in B. divergens; experiment: Western blot of polyubiquitinated proteins in treated B. divergens cultures; assay type: cell-based, Babesia divergens; settings: 200 nM, 24 h, anti-Ubiquitin K48 western blot, vs 0.1% DMSO
Method: To assess the on-target effect of proteasome inhibition, protein lysates of B. divergens isolated from bovine erythrocyte cultures were evaluated for the accumulation of polyubiquitinated proteins. The B. divergens cultures underwent two 12 h treatments (totaling 24 h) with 200 nM of the inhibitor in culture medium. Parasites were released from RBCs and protein lysates were prepared as described above. The resulting samples were then centrifuged at 15,000g for 15 min at 4 °C and protein concentrations of the resulting supernatant were determined using Bradford assay.[29] Samples were prepared for SDS-PAGE in reducing Laemmli buffer supplemented with β-mercaptoethanol. Ten micrograms of protein was applied per lane and proteins were separated on gradient (4–15%) Criterion TGX Stain-Free Precast gels (BioRad) in Tris-Glycine-SDS running buffer (25 mM Tris, 192 mM glycine, and 0.1% (w/vol) SDS, pH 8.3) and visualized using TGX stain-free chemistry (BioRad). […] After washing (3 × 10 min) in PBS-T, signals were detected using Clarity Max Western ECL substrate (BioRad), visualized using a ChemiDoc MP imager, analyzed, and adjusted using the ImageLab freeware (BioRad).

[3] = tested on: catalytic subunits of Bd20S; experiment: Activity-based probe labeling (Me4BodipyFL-Ahx3Leu3VS) of Bd20S catalytic subunits; assay type: binding, Babesia divergens; settings: lysates from CFZ- and CPB-treated cells, vs vehicle

CCCCCC(=O)N[C@H](C(=O)N[C@@H](CCS(C)(=O)=O)C(=O)N[C@@H](CC(C)C)C(=O)[C@@]1(C)CO1)C(C)C [carmaphycin B]
Selectivity index (B. divergens over HepG2 cells) ([1]; HepG2 EC50 / B. divergens EC50): 0.21 | EC50 [1]: 59.5 ± 12.8 nM | EC50 ([1]; listed as CPB): 59.5 ± 12.8 nM | accumulation of endogenous polyubiquitinated proteins [2]: marked accumulation | labeling of catalytic subunits by activity-based probe [3]: significantly reduced

Reference: paper PMC11561622, “Evaluating Antimalarial Proteasome Inhibitors for Efficacy in Babesia Blood Stage Cultures” (ACS Omega, 2024)
